Measured values from patent US9169241B2, “Quinolinyloxyphenylsulfonamides” (Max-Planck-Gesellschaft Zur Forderung der Wissenschaften …, priority 2009, dated 2015).

How the values were obtained:
[1] = target: T1, wild type AXL (wtAXL) receptor tyrosine kinase (Homo sapiens, UniProt P30530); assay: NIH-3T3-AXL cellular kinase assay (pY-AXL-ELISA); type: cell-based; conditions: NIH-3T3-AXL (clone 22) cells, serum depleted, compounds 1 h; Table Ia
T1 construct: WtAXL cDNA was cloned into vector pLXSN(ESK) and transfected into Phoenix E packaging cells; expressed in transfected cells; host or cells: NIH3T3 N7 (mouse fibroblasts), retrovirally infected, clone 22
T1 sequence (P30530 26-894): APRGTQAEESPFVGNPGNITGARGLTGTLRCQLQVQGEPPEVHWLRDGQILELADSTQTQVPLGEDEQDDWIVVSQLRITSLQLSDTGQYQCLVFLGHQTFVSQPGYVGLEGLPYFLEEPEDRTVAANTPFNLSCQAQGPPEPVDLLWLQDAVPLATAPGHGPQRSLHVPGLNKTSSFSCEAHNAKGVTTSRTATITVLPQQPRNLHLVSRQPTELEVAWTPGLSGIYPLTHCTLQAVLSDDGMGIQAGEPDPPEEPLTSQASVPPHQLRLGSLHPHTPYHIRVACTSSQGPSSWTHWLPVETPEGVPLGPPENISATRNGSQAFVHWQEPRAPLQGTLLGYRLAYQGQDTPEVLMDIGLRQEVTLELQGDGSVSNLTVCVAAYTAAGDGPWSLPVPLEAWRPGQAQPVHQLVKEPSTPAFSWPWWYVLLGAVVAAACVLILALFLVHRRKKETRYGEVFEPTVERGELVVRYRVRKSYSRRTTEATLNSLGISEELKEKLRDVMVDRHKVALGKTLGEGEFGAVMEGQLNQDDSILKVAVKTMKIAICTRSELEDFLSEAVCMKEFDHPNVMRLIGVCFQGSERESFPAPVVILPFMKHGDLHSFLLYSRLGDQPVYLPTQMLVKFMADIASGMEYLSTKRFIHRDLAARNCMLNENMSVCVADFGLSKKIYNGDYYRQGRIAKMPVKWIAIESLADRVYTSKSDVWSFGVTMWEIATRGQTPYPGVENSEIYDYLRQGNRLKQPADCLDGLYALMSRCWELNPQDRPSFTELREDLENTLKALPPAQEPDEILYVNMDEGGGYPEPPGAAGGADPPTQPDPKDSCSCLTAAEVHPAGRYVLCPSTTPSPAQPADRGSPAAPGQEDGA
Method: WtAXL cDNA was cloned into vector pLXSN(ESK) and transfected into Phoenix E packaging cells. The viral supernatant was collected and used to infect target cells NIH3T3 N7. Monoclonal NIH3T3-AXL cell lines stably expressing wtAXL were generated by selecting retrovirally infected cells in medium containing puromycin (2 μg/ml) and subsequent clonal separation.
Serial dilutions of compounds were added, and the cells were further incubated for 1 h. Cells were washed with PBS and lysed on ice in 500 μl lysis buffer (50 mM HEPES (pH 7.5), 150 mM NaCl, 1 mM EGTA, 10% Glycerol, 1% Triton X-100, 100 mM NaF, 10 mM Na4P2O7.10H2O, 1 mM Na3VO4, 1 mM phenylmethylsulfonyl fluoride, and […]) for 15 min. The cell lysate were used for phosphotyrosine AXL enzyme-linked immunosorbant assay (pY-AXL-ELISA). […] Subsequently 96-well plates were blocked with PBS-0.05% Tween®20+10% FBS for 4 h at 37° C. Plates were washed 5 times with PBS-0.05% Tween®20 and 95 μl of lysate was transferred per well for incubation overnight at 4° C. Plates were washed 5 times with PBS-0.05% Tween®20 (Sigma, Steinheim, Germany). For detection of phosphorylated tyrosine we used homemade biotynilated 4G10-antibody (0.5 μg/ml) in PBS-0.05% Tween®20+10% FBS (100 μl/well) and incubated the 96-well plate for 2 h at room temperature. The anti-phosphotyrosine mouse monoclonal antibody 4G10 was biotynilated with Sulfo-NHS®-Biotin according to the suppliers protocol (Pierce, Rockford, Ill., USA) and purified by Mirco Bio-Spin 6 Chromatograpy Columns (BIO RAD Laboratories, Inc., Hercules, Calif., USA) using PBS as diluent. Plates were washed 5 times with PBS-0.05% Tween®20. For biding to biotin Alkaline Phosphatase Conjugated Strepavidin SA110 (Millipore, Billerica, Mass., USA) (1:4000) was used in PBS-0.05% Tween20+10% FBS (100 μl/well) and incubated for 30 min at room temperature. Plates were washed 5 times with PBS-0.05% Tween20. For fluorimetric detection of alkaline phosphatase AttoPhos Substrate Set (Roche diagnostics GmbH, Mannheim, Germany) was used (100 μl/well). The fluorimetric signal was quantified after 90 min at 430/560 nm wavelength using a TECAN Ultra Evolution plate reader (Tecan Deutschland GmbH, Crailsheim, Germany).

[2] = system: Hs578T; assay: Cell vitality assay (ATP assay, CellTiter-Glo); type: cell-based; conditions: Homo sapiens, Hs-578T; HS578T cell line, 72 h; Table Ib; read-out: IC50 ATP-Assay HS578T after 72 h
How it was run: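 Cells (1000/well) incubated 72 h with test compound, top dose 12.5 μM, twofold dilutions, DMSO as reference. Lysis reagent added, luminescence recorded; background from cell-free medium wells.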

[3] = system: Hs578T; assay: Wound healing migration assay; type: cell-based; conditions: Homo sapiens, Hs-578T; HS578T cell line; Table Ib
How it was run: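 Cells seeded at 150000/24 well, grown to monolayer overnight, scratched with a pipette tip, then treated with compound at 12.5, 6.25 or 3.125 μM versus DMSO. Stopped by crystal violet fixation at 48-72 h once control wounds closed; IC50 taken as 50% wound size between t0 and t48 or t72.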

[4] = system: Hs578T; assay: Matrigel outgrowth assay/branching assay; type: cell-based; conditions: Homo sapiens, Hs-578T; HS578T cell line; Table Ib; read-out: Total branching inhibition in Matrigel HS578T
How it was run: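 Read-out: microscopic images of invasive branching structures at 48 h, 72 h and 96 h. Cells sat on a 3 mg/ml Matrigel layer (set 1 h, 37° C) with compound at 3.125, 1.56 and 0.78 μM or DMSO. A concentration counts as positive only with complete branching inhibition.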

SMILES | IC50 [1] | IC50 [3] | melting point | IC50 [2] | IC50 [4]
COc1cc2c(Oc3ccc(NS(=O)(=O)c4ccccc4C(F)(F)F)cc3OC)ccnc2cc1OCCCN1CCC(C)CC1 [Example 208, N-(3-Methoxy-4-{6-methoxy-7-[3-(4-methyl-piperidin-1-yl)-propoxy]-quinolin-4-yloxy}-phenyl)-2-trifluoromethyl-benzenesulfonamide] | < 0.5 µM | 12.5 to 50 µM | 216 to 218 °C | ≤ 12.5 µM | 10 to 25 µM
COc1cc2c(Oc3ccc(NS(=O)(=O)c4cc(F)ccc4F)cc3C)ccnc2cc1OCCCN1CCC(C)CC1 [Example 171, 2,5-Difluoro-N-(4-{6-methoxy-7-[3-(4-methyl-piperidin-1-yl)-propoxy]-quinolin-4-yloxy}-3-methyl-phenyl)-benzenesulfonamide] | 0.5 to 3 µM | 12.5 to 50 µM | 222 to 223 °C | 12.5 to 50 µM | 10 to 25 µM
COc1cc2c(Oc3ccc(NS(=O)(=O)c4c(F)cccc4F)cc3Cl)ccnc2cc1OCCCN1CCN(C)CC1 [Example 118, N-(3-Chloro-4-{6-methoxy-7-[3-(4-methyl-piperazin-1-yl)-propoxy]-quinolin-4-yloxy}-phenyl)-2,6-difluoro-benzenesulfonamide] | < 0.5 µM | – | 122 to 124 °C | – | –
COc1cc2c(Oc3ccc(Cl)c(NS(=O)(=O)c4ccccc4OC(F)(F)F)c3)ccnc2cc1OCCCN1CCC(C)CC1 [Example 196, N-(2-Chloro-5-{6-methoxy-7-[3-(4-methyl-piperidin-1-yl)-propoxy]-quinolin-4-yloxy}-phenyl)-2-trifluoromethoxy-benzenesulfonamide] | – | 12.5 to 50 µM | 123 to 126 °C | 12.5 to 50 µM | 10 to 25 µM
COc1cc2c(Oc3ccc(NS(=O)(=O)c4sc(NC(C)=O)nc4C)cc3F)ccnc2cc1OCCCN(C)C [Example 183, N-(5-{4-[7-(3-Dimethylamino-propoxy)-6-methoxy-quinolin-4-yloxy]-3-fluoro-phenylsulfamoyl}-4-methyl-thiazol-2-yl)-acetamide] | – | 12.5 to 50 µM | 164 to 166 °C | 12.5 to 50 µM | 10 to 25 µM
COc1cc2c(Oc3ccc(NS(=O)(=O)c4ccn(C)n4)cc3F)ccnc2cc1OCCCN1CCN(C)CC1 [Example 166, 1-Methyl-1H-pyrazole-3-sulfonic acid (3-fluoro-4-{6-methoxy-7-[3-(4-methyl-piperazin-1-yl)-propoxy]-quinolin-4-yloxy}-phenyl)-amide] | – | 12.5 to 50 µM | 157 to 159 °C | ≤ 12.5 µM | 10 to 25 µM
COc1cc2c(Oc3ccc(NS(=O)(=O)c4cc(F)ccc4F)cc3F)ccnc2cc1OCCCCOC(C)=O [Example 211, Acetic acid 4-{4-[4-(2,5-difluoro-benzenesulfonylamino)-2-fluoro-phenoxy]-6-methoxy-quinolin-7-yloxy}-butyl ester] | – | ≤ 12.5 µM | 165 to 167 °C | ≤ 12.5 µM | 10 to 25 µM

Second part, led by results:

IC50 [1] | IC50 [3] | melting point | SMILES | IC50 [2] | IC50 [4]
0.5 to 3 µM | ≤ 12.5 µM | 209 to 210 °C | COc1cc2c(Oc3ccc(NS(=O)(=O)c4c(Cl)cccc4Cl)cc3C)ccnc2cc1OCCCN1CCC(C)CC1 [Example 176, 2,6-Dichloro-N-(4-{6-methoxy-7-[3-(4-methyl-piperidin-1-yl)-propoxy]-quinolin-4-yloxy}-3-methyl-phenyl)-benzenesulfonamide] | ≤ 12.5 µM | ≤ 10 µM
0.5 to 3 µM | 12.5 to 50 µM | 249 to 250 °C | COc1ccc2nccc(Oc3ccc(NS(=O)(=O)c4cc(F)ccc4F)cc3F)c2c1 [Example 199, 2,5-Difluoro-N-[3-fluoro-4-(6-methoxy-quinolin-4-yloxy)-phenyl]-benzenesulfonamide] | 12.5 to 50 µM | 10 to 25 µM
< 0.5 µM | ≤ 12.5 µM | 98 to 101 °C | COc1cc2c(Oc3ccc(NS(=O)(=O)c4csc5ccccc45)cc3Cl)ccnc2cc1OCCCN1CCN(C)CC1 [Example 117, Benzo[b]thiophene-3-sulfonic acid (3-chloro-4-{6-methoxy-7-[3-(4-methyl-piperazin-1-yl)-propoxy]-quinolin-4-yloxy}-phenyl)-amide] | ≤ 12.5 µM | 10 to 25 µM
< 0.5 µM | ≤ 12.5 µM | 99 to 100 °C | COc1cc2c(Oc3ccc(NS(=O)(=O)c4cccc(OC(F)F)c4)cc3F)ccnc2cc1OCCCN1CCCC(C)C1 (stereo not drawn) [Example 43, 3-Difluoromethoxy-N-(3-fluoro-4-{6-methoxy-7-[3-(3-methyl-piperidin-1-yl)-propoxy]-quinolin-4-yloxy}-phenyl)-benzenesulfonamide] | ≤ 12.5 µM | ≤ 10 µM
< 0.5 µM | ≤ 12.5 µM | 186 to 188 °C | COc1cc2c(Oc3ccc(NS(=O)(=O)c4cccs4)cc3F)ccnc2cc1OCCCN(C)C [Example 186, Thiophene-2-sulfonic acid {4-[7-(3-dimethylamino-propoxy)-6-methoxy-quinolin-4-yloxy]-3-fluoro-phenyl}-amide] | ≤ 12.5 µM | 10 to 25 µM
0.5 to 3 µM | ≤ 12.5 µM | 170 to 172 °C | COc1cc2c(Oc3ccc(NS(=O)(=O)c4cc(F)ccc4F)cc3OC)ccnc2cc1OCCCN1CCC(C)CC1 [Example 207, 2,5-Difluoro-N-(3-methoxy-4-{6-methoxy-7-[3-(4-methyl-piperidin-1-yl)-propoxy]-quinolin-4-yloxy}-phenyl)-benzenesulfonamide] | ≤ 12.5 µM | 10 to 25 µM
< 0.5 µM | ≤ 12.5 µM | 131 to 132 °C | COc1cc2c(Oc3ccc(NS(=O)(=O)c4c(Cl)csc4Cl)cc3F)ccnc2cc1OCCCN1CCCCC1C (stereo not drawn) [Example 146, 2,4-Dichloro-thiophene-3-sulfonic acid (3-fluoro-4-{6-methoxy-7-[3-(2-methyl-piperidin-1-yl)-propoxy]-quinolin-4-yloxy}-phenyl)-amide] | ≤ 12.5 µM | 10 to 25 µM
